Results on 20 compounds are retold here after PubChem BioAssay AID256 (DTP/NCI, 2004).

This experiment relates to CD2F1 mice, L1210 leukemia ip, survival T/C. As to the kind of experiment: NCI In Vivo Anticancer Drug Screen. Data for tumor model L1210 Leukemia (intraperitoneal) in CD2F1 (CDF1) mice. The settings on record: endpoint: mean survival time, higher = longer survival. In a few lines:
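Each value reflects a quotient of treated over vehicle control outcomes in mice with a transplanted tumor.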

Where [1] appears, read: dose: 100.0 mg/kg/injection, schedule: Q04DX003 (ip), vehicle: saline with Tween-80.
[2] abbreviates: dose: 200.0 mg/kg/injection, schedule: Q04DX003 (ip), vehicle: saline with Tween-80.
Setting [3] is: dose: 400.0 mg/kg/injection, schedule: Q04DX003 (ip), vehicle: saline with Tween-80.
Setting [4] is: dose: 100.0 mg/kg/injection, schedule: Q01DX009 (ip), vehicle: saline.
[5] abbreviates: dose: 100.0 mg/kg/injection, schedule: Q01DX009 (ip), vehicle: saline with Tween-80.
Where [6] appears, read: dose: 200.0 mg/kg/injection, schedule: Q01DX009 (ip), vehicle: saline with Tween-80.
The mark [7] stands for this setting: dose: 400.0 mg/kg/injection, schedule: Q01DX009 (ip), vehicle: saline with Tween-80.
Setting [8] is: dose: 400.0 mg/kg/injection, schedule: Q01DX001 (ip), vehicle: saline.
The mark [9] stands for this setting: dose: 100.0 mg/kg/injection, schedule: Q04DX003 (ip), vehicle: saline.

The structures appear in SMILES notation. Values joined by “and” are separate entries in the source; they are usually repeats but may differ in a detail not shown here. Equal entries are not always repeated. Toxic doses and inconclusive results are not listed.

Regarding `C[NH-].C[NH-].[Br][Pt][Br].[CH3-].[CH3-]`, the T/C reads like this: (dose: 1.56 mg/kg/injection, schedule: Q04DX003 (ip), vehicle: saline with Tween-80) 97 % of control; (dose: 3.13 mg/kg/injection, schedule: Q04DX003 (ip), vehicle: saline with Tween-80) 97 % of control; (dose: 6.25 mg/kg/injection, schedule: Q04DX003 (ip), vehicle: saline with Tween-80) 104 % of control; (dose: 12.5 mg/kg/injection, schedule: Q04DX003 (ip), vehicle: saline with Tween-80) 93 % of control; (dose: 25.0 mg/kg/injection, schedule: Q04DX003 (ip), vehicle: saline with Tween-80) 89 % of control and 93 % of control; (dose: 50.0 mg/kg/injection, schedule: Q04DX003 (ip), vehicle: saline with Tween-80) 102 % of control. The T/C under setting [1] was 100 % of control, the T/C under setting [2] was 98 % of control and the T/C under setting [3] is 94 % of control.

Turning to `CCOC(=O)c1c(-c2ccccc2)csc1NS(=O)(=O)c1ccc(C)cc1`, the T/C is, setting by setting: (dose: 75.0 mg/kg/injection, schedule: Q01DX001 (ip), vehicle: saline) 96 % of control; (dose: 150.0 mg/kg/injection, schedule: Q01DX001 (ip), vehicle: saline) 90 % of control; (dose: 300.0 mg/kg/injection, schedule: Q01DX001 (ip), vehicle: saline) 101 % of control.

Consider `N#CCCN1CCS(=O)(=O)C1=O`, for which the T/C is, setting by setting: (dose: 19.0 mg/kg/injection, schedule: Q01DX001 (ip), vehicle: other) 107 % of control; (dose: 38.0 mg/kg/injection, schedule: Q01DX001 (ip), vehicle: other) 115 % of control; (dose: 75.0 mg/kg/injection, schedule: Q01DX001 (ip), vehicle: other) 112 % of control; (dose: 150.0 mg/kg/injection, schedule: Q01DX001 (ip), vehicle: other) 117 % of control and 109 % of control.

`CCC(N)Cc1ccc2c(c1)OCO2` (stereo not given): the T/C was 98 % of control (dose: 25.0 mg/kg/injection, schedule: Q01DX009 (ip), vehicle: saline); 93 % of control (dose: 50.0 mg/kg/injection, schedule: Q01DX009 (ip), vehicle: saline); 96 % of control under setting [4]; 95 % of control under setting [1].

Regarding `O=C(NO)c1ccc(O)cc1`, for the setting “dose: 267.0 mg/kg/injection, schedule: Q01DX009 (ip), vehicle: saline”, the T/C was 120 % of control.

Take `COc1cc2c(c(OC)c1OC)-c1ccc(SC)c(=O)cc1[C@@H](NC1OC(COC(C)=O)C(OC(C)=O)C(OC(C)=O)C1OC(C)=O)CC2` (stereo not given in full): the T/C by setting is: (dose: 1.5 mg/kg/injection, schedule: Q01DX009 (ip), vehicle: other) 97 % of control; (dose: 3.0 mg/kg/injection, schedule: Q01DX009 (ip), vehicle: other) 97 % of control; (dose: 6.0 mg/kg/injection, schedule: Q01DX009 (ip), vehicle: other) 97 % of control; (dose: 12.0 mg/kg/injection, schedule: Q01DX009 (ip), vehicle: other) 96 % of control; (dose: 24.0 mg/kg/injection, schedule: Q01DX009 (ip), vehicle: other) 96 % of control.

Consider `O=C(CC(c1ccccc1)C(C(=O)O)C(=O)O)c1ccccc1` (stereo not given), for which the T/C is 97 % of control (dose: 100.0 mg/kg/injection, schedule: Q04DX002 (ip), vehicle: other); 101 % of control (dose: 200.0 mg/kg/injection, schedule: Q04DX002 (ip), vehicle: other); 104 % of control (dose: 400.0 mg/kg/injection, schedule: Q04DX002 (ip), vehicle: other).

As for `CC(Cl)CN(CC(C)Cl)c1ccc2c(c1)Cc1cc([N+](=O)[O-])ccc1-2` (stereo not given), the T/C by setting is: under setting [1], 93 % of control; under setting [2], 96 % of control; under setting [3], 96 % of control.

Consider `c1coc(NC2CCCCC2)n1`, for which the T/C is, setting by setting: (dose: 100.0 mg/kg/injection, schedule: Q01DX001 (ip), vehicle: saline with Tween-80) 102 % of control; (dose: 200.0 mg/kg/injection, schedule: Q01DX001 (ip), vehicle: saline with Tween-80) 102 % of control; (dose: 400.0 mg/kg/injection, schedule: Q01DX001 (ip), vehicle: saline with Tween-80) 102 % of control.

With `CCc1cc2c(cc1C(=O)/C=C\c1cccc3ccccc13)C(C)(C)CCC2(C)C`, the T/C by setting is: (dose: 6.25 mg/kg/injection, schedule: Q01DX009 (ip), vehicle: saline with Tween-80) 94 % of control; (dose: 12.5 mg/kg/injection, schedule: Q01DX009 (ip), vehicle: saline with Tween-80) 86 % of control; (dose: 25.0 mg/kg/injection, schedule: Q01DX009 (ip), vehicle: saline with Tween-80) 93 % of control.

As for `CCCCOP(=O)(OCCCC)Oc1cccc2ccccc12`, the T/C runs as follows: (dose: 100.0 mg/kg/injection, schedule: Q04DX002 (ip), vehicle: saline with Tween-80) 91 % of control; (dose: 200.0 mg/kg/injection, schedule: Q04DX002 (ip), vehicle: saline with Tween-80) 95 % of control; (dose: 400.0 mg/kg/injection, schedule: Q04DX002 (ip), vehicle: saline with Tween-80) 106 % of control.

`CNC(=O)Nc1ccc(S(N)(=O)=O)cc1`: the T/C is, setting by setting: under setting [5], 97 % of control; under setting [6], 91 % of control; under setting [7], 100 % of control.

On to `COc1ccccc1NC(N)=O`, for which the T/C is, setting by setting: under setting [5], 95 % of control; under setting [6], 86 % of control; under setting [7], 95 % of control.

For `CN(Cc1cnc2nc(N[Si](C)(C)C)nc(N[Si](C)(C)C)c2n1)c1ccc(C(=O)NC(CCC(=O)O[Si](C)(C)C)C(=O)O[Si](C)(C)C)cc1` (stereo not given), the T/C was 159 % of control (dose: 1.25 mg/kg/injection, schedule: Q01DX009 (ip), vehicle: saline); 117 % of control (dose: 1.9 mg/kg/injection, schedule: Q04DX003 (ip), vehicle: saline); 172 % of control (dose: 2.5 mg/kg/injection, schedule: Q01DX009 (ip), vehicle: saline); 159 % of control (dose: 7.5 mg/kg/injection, schedule: Q04DX003 (ip), vehicle: saline); 178 % of control (dose: 15.0 mg/kg/injection, schedule: Q04DX003 (ip), vehicle: saline); 103 % of control (dose: 20.0 mg/kg/injection, schedule: Q01DX009 (ip), vehicle: saline). Moreover, the T/C by setting is: (dose: 30.0 mg/kg/injection, schedule: Q04DX003 (ip), vehicle: saline) 193 % of control; (dose: 60.0 mg/kg/injection, schedule: Q04DX003 (ip), vehicle: saline) 155 % of control; (dose: 120.0 mg/kg/injection, schedule: Q04DX003 (ip), vehicle: saline) 117 % of control.

In the case of `S=c1[nH]cc[nH]1`, the T/C was 103 % of control (dose: 100.0 mg/kg/injection, schedule: Q01DX001 (ip), vehicle: saline); 100 % of control (dose: 200.0 mg/kg/injection, schedule: Q01DX001 (ip), vehicle: saline); 96 % of control under setting [8].

Take `NC(=O)C12CCCCC1CCC(=O)C2` (stereo not given): the T/C runs as follows: (dose: 25.0 mg/kg/injection, schedule: Q04DX003 (ip), vehicle: saline) 93 % of control; (dose: 50.0 mg/kg/injection, schedule: Q04DX003 (ip), vehicle: saline) 96 % of control; under setting [9], 90 % of control.

As to `[O-][n+]1cc(N=Nc2ccc(Cl)cc2)nn1-c1ccc(Cl)cc1`, the T/C under setting [8] is 86 % of control.

With `O=C1OC(c2ccccc2)(c2ccccc2)Cc2ccccc21`, the T/C runs as follows: under setting [5], 98 % of control; under setting [6], 102 % of control; under setting [7], 102 % of control.

For the compound `O=C1C2=C(CCCC2)CN1c1ccccc1`, the T/C runs as follows: (dose: 50.0 mg/kg/injection, schedule: Q01DX009 (ip), vehicle: saline with Tween-80) 98 % of control; under setting [5], 98 % of control; under setting [6], 107 % of control.

Take `Cc1cccc(=N)n1CCC(=O)O`: the T/C is 95 % of control under setting [4]; 112 % of control under setting [9]; 98 % of control (dose: 200.0 mg/kg/injection, schedule: Q01DX009 (ip), vehicle: saline); 94 % of control (dose: 200.0 mg/kg/injection, schedule: Q04DX003 (ip), vehicle: saline); 95 % of control (dose: 400.0 mg/kg/injection, schedule: Q01DX009 (ip), vehicle: saline); 96 % of control (dose: 400.0 mg/kg/injection, schedule: Q04DX003 (ip), vehicle: saline).
